Earlier results in patent US8580318B2, “Natural water soluble extracts for the inhibition of alpha-1-adrenergic receptors” (Naturamed Ltd., priority 2007, dated 2013).

Test system: serum prostate specific antigen (PSA)
Details: patients with BPH

Structure (SMILES): CC(C)(C)NC(=O)[C@H]1CC[C@H]2[C@@H]3CC[C@H]4NC(=O)C=C[C@]4(C)[C@H]3CC[C@]12C [finasteride, Finasteride]
- decrease in serum prostate specific antigen (PSA) levels: approximately 50%
